Test results as given in US20200399308A1, “COMPOUNDS AND METHODS FOR ELICITING ANTIMICROBIAL ACTIVITY” (Technion Research & Development Foundation Limited, priority 2018, published 2020).
Entries after “also recorded” stand apart in the source; their conditions may differ. Non-standard residues stand in square brackets, D forms with d. Residues, ends and D or L forms follow the SMILES beside them. *: point of attachment. 12Ado = NCCCCCCCCCCCC(=O)O; Decanoyl = CCCCCCCCCC(=O)*; Orn = NCCC[CH](N)C(=O)O

Assays:
[1] = Charge at physiological pH (Q); assay type: physicochemical
[2] = Hydrophobicity (H) by HPLC elution from C18 column; assay type: physicochemical; settings: percentage of acetonitrile required for elution
[3] = tested on: E. coli; assay: Minimal bactericidal concentration; assay type: cell-based; settings: Escherichia coli
[4] = tested on: Escherichia coli mutant ML-35p; assay: Outer and cytoplasmic membrane permeabilization (nitrocefin / ONPG); assay type: cell-based; settings: E. coli ML-35p, buffer, 16 minutes after addition
Method: Membrane permeabilization was assessed using E. coli ML-35p as described elsewhere, to monitor the ability of the compounds to perturb the outer and/or cytoplasmic membranes. Reported data were obtained from ≥2 independent experiments performed in duplicate.
Additional support for this view was obtained by comparing the compounds' susceptibility to damage gram-negative bacteria membranes, using the E. coli mutant ML-35p. Widely described in the literature, the mutant was considered herein as representative of all gram-negative bacteria, rather than a specific species. This mutant is constitutive for cytoplasmic β-galactosidase, lacks lactose permease, and expresses a plasmid-encoded periplasmic β-lactamase. Two chromogenic reporter molecules (nitrocefin and 2-nitrophenyl β-d-galactopyranoside, respectively, absorbing at 486 and 420 nm) were used to monitor permeabilization of the outer membrane and/or cytoplasmic membrane in a single assay.

[5] = Maximum tolerated dose, single-dose subcutaneous administration; assay type: in vivo; settings: subcutaneous 20 mg/kg, mice
Method: Mortality was monitored for 7 days thereafter. Pharmacokinetic studies were performed as described elsewhere.

[6] = tested on: Escherichia coli 25922; assay: Serum survival assay; assay type: cell-based
Method: (§1) Serum survival assays were performed using fresh serum from normal mice or human serum from the Israel Blood Bank; samples were pooled and stored in aliquots at −80° C. until use. Time-dependent killing was determined in a final volume of 125 μL consisting of 112.5 μL of serum containing either a tested compound, egg white lysozyme (Amresco), lactoferrin (Vivinal lactoferrin FD; DMV International, Delhi, N.Y.), anti-murine C5/C5a antibody (25 μg/mL; ab194637; Abcam), or their combination, as specified. These solutions were supplemented with 12.5 μL of bacteria suspended in PBS at the desired concentration. After the specified time points of exposure, cultures were subjected to serial 10-fold dilutions in saline (0.85% NaCl) and plated for bacterial enumeration after incubation at 37° C. for an additional 24 hours. In heat-treated experiments, sera were incubated at 56° C. for 30 minutes for protein inactivation. Data were obtained from 3 independent experiments.

[7] = tested on: Klebsiella pneumoniae 1287; assay: Serum survival assay; assay type: cell-based; settings: 10 μM Compound B
Method: as §1

[8] = tested on: Klebsiella pneumoniae 1287; assay: Mouse peritonitis-sepsis model; assay type: in vivo; settings: for survival frequency: neutropenic ICR mice infected i.p.
[9] = tested on: Escherichia coli 25922; assay: Mouse thigh infection model; assay type: in vivo; settings: normal mice inoculated intramuscularly, treated s.c. 1 hour thereafter, CFU 24 hours post-treatment
Method: (§2) Mouse thigh infection model was afforded from normal ICR mice, which were inoculated intramuscularly and treated subcutaneously 1 hour thereafter with a tested compound or polymyxin B (PMB; Sigma-Aldrich) as described elsewhere. P values were calculated using a 1-tailed t test (assuming unequal variance). A P value of <0.05 is considered statistically significant.

[10] = tested on: Klebsiella pneumoniae 1287; assay: Mouse thigh infection model; assay type: in vivo; settings: normal mice inoculated intramuscularly, treated s.c. 1 hour thereafter
Method: as §2

[11] = tested on: E. coli 25922; assay: Cytoplasmic membrane depolarization (DiSC35); assay type: cell-based, Escherichia coli; settings: low Compound B concentrations
Method: Cytoplasmic membrane depolarization measurements were assessed by monitoring the displacement of 3,39-dipropylthiadicarbocyanine iodide (DiSC35), a lipophilic potentiometric dye. Mid-logarithmic phase E. coli 25922 at OD 0.6 nm was centrifuged for 5 min at 15,000 g. The pellet was washed twice with 5 mM HEPES containing 5 mM glucose and 2 mM EDTA before addition of DiSC35 ([…]) and quenching at room temperature in the dark for 1 hour. KCl was then added (100 mM) and the suspension incubated overnight (4° C.). One hundred eighty microliters of this bacterial suspension was placed in a black 96-well plate, and fluorescence was recorded until signal stabilization (excitation 620 nm, emission 680 nm). Thereafter […] of the tested compound was added and the fluorescence recorded for up to 30 minutes at 37° C. with shaking. Data were obtained from at least 2 independent experiments performed in duplicate.
(FU denotes fluorescence units; triangles denote Compound B, circles denote PMB, squares denote untreated control; error bars=SD).

[12] = tested on: wild-type isogenic strain; assay: MIC on wild-type isogenic strain; assay type: cell-based; settings: Escherichia coli, data not shown
From the text: The following strains were used for the studies below: Escherichia coli strain ML-35p (American Type Culture Collection [ATCC]; […]. The following gram-positive species was investigated: methicillin-resistant Staphylococcus aureus clinical isolate USA300 10017 (a gift from Dr. Gili Regev-Yochay, Infectious Disease Unit, Sheba Medical Center, Israel). Additional Escherichia coli strains tested include β-lactamase producer 35218; clinical isolate strains 14182, 14384, and U16327; and two K12 isogenic mutants, AG100 and AG100A. Unless otherwise stated, all bacterial cultures were grown overnight in Luria-Bertani broth (LB).
Minimal inhibitory concentrations (MICs) were determined as previously described. […] MICs were determined by microdilution susceptibility testing in 96-well plates (by Nunc) using inocula of 10^5 bacteria per ml. Cell populations were evaluated by optical density measurements at 620 nm and were calibrated against a set of standards. Hundred (100) μl of a bacterial suspension were added to 100 μl of culture medium (control) or to 100 μl of culture medium containing various tested compound concentrations in 2-fold serial dilutions. Inhibition of proliferation was determined by optical density measurements at 620 nm after an incubation period of 24 hours at 37° C. Data were obtained from ≥2 independent experiments performed in duplicate.

CCCCCCCCCC(=O)NC(CCCN)C(=O)NC(CCCN)C(=O)NCCCCCCCCCCCC(=O)NC(CCCN)C(N)=O (stereo not drawn) [Compound B] (Decanoyl-[Orn][Orn][12Ado][Orn]-NH2; configuration not given here)
Q, charge at physiological pH [1]: 3
H, hydrophobicity [2]: 43%
MBC [3]: > 50 µM
cytoplasmic membrane permeabilization [4]: similarly unable to permeabilize the cytoplasmic membrane at least up to approximately 10 μM; also recorded: some CM permeabilization occurred only at 10 mM
outer membrane permeabilization [4]: similarly potent in inducing outer membrane permeabilization; also recorded: as efficient as dermaseptin in altering outer membrane permeability
adverse effects at highest tested dose [5]: did not result in any visible adverse effect
inhibition at 10 µM ([6]; Escherichia coli, 25922, 80% mouse serum, 10 μM Compound B, 3 h, read-out: growth inhibition in mouse serum): 74%
antibacterial effect in human serum ([6]; 10 μM Compound B, absence of exogenous lysozyme): significant growth inhibition
antibacterial effect in human serum ([6]; 10 μM Compound B, presence of exogenous lysozyme (18 μM)): potent bactericidal effect
growth inhibition in serum obtained from treated mice ([6]; mouse serum obtained 1 hour after subcutaneous administration ([…]), 3 h incubation): 80%
E. coli counts (final, from 4 log) ([6]; mouse serum, 10 μM Compound B plus 18 μM lysozyme): 1.7 log CFU/mL
inhibition at 10 µM ([7]; Klebsiella pneumoniae, 1287, 80% mouse serum, 3 h, read-out: growth inhibition in mouse serum): 48%
antibacterial effect in human serum ([7]; absence of exogenous lysozyme): significant growth inhibition
antibacterial effect in human serum ([7]; presence of exogenous lysozyme (18 μM)): potent bactericidal effect
animal survival after infection with pretreated bacteria ([8]; bacteria exposed in vitro to 5 μM Compound B for 15 minutes, neutropenic mice, 3 days post-infection): 70%
survival frequency ([8]; s.c. double doses): 90%
survival frequency ([8]; s.c. single dose): 60%
reduction of the number of inoculated E. coli [9]: 80%
effect on proliferation in thigh [10]: significantly inhibited proliferation
CM depolarization (DiSC35 fluorescence) [11]: partial depolarization of the CM
MIC [12]: > 50 µM
